According to patent US20250051266A1, “Novel GLV-Phenolamide: Biosynthesis and Function in Protecting Plants from Herbivore Attack” (Max-Planck-Gesellschaft zur Förderung der Wissenschaften …, priority 2021, published 2025):
“Also recorded” adds a separate entry of the source.

Columns and labels:
NaPPO1 = target: T1, NaPPO1 (Nicotiana attenuata, UniProt A0A1J6JLI9); assay: In vitro enzyme assay, substrate specificity of NaPPO1; assay type: biochemical
T1 sequence (A0A1J6JLI9 1-596): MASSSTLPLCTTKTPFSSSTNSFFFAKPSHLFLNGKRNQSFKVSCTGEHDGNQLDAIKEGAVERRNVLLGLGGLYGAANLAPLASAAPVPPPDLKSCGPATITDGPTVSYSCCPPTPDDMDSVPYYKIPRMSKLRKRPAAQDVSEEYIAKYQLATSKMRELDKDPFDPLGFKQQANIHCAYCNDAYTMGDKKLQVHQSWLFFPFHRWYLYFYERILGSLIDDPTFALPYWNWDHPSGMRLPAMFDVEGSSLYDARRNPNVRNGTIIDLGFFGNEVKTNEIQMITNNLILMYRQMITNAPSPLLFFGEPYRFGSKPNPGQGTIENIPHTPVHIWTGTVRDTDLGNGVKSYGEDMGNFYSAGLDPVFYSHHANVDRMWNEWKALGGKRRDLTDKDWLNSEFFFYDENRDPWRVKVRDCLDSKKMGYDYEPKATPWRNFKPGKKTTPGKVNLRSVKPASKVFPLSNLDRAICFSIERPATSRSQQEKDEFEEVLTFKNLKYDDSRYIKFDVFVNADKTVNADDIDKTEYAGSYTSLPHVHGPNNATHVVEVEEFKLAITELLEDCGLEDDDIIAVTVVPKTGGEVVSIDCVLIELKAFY
Text: (§1) Extracted ion chromatograms (EIC) for doubly charged CP dimer (m/z 250.13) and m/z 347.19 in E. coli expressing NaPPO1 and NaPPO2 with CP and Z3H or (E)-2-hexenal. Compounds 1, 2, 3, 4 denote isomers of CP dimer; compounds 5, 6 denote isomers of m/z 347.19.
(§2) FIG. 53 Substrate specificity of NaPPO1 and NaPPO2 enzymes. Overlay of total ion chromatograms (TIC) of enzyme assays for authentic chlorogenic acid (CGA std), N-coumaroylputrescine (CoP std), (Z)-3-hexenal or (E)-2-hexenal with purified NaPPO1/NaPPO2 from E. coli. Compounds 1 and 2 denote CGA and CoP; 3 and 4 denote contamination peaks from (Z)-3-hexenal and CoP standards, respectively.
(§3) To test this hypothesis, purified NaPPO1, NaPPO2 and NaBBL2 proteins with N-terminal hexahistidine tags after expression in Escherichia coli were isolated (FIGS. 44-45). Incubation of either NaPPO1 or NaPPO2 (NaPPO1/2) with CP and (Z)-3-hexenal yielded a m/z 347.19 peak with identical MS/MS spectrum and retention time as the m/z 347.19 induced in N. attenuata leaves (FIG. 46). Additionally, by-products of doubly charged CP dimers at m/z 250.13 ([M+2H]2+, C26H36N4O62+) which are not detected in oral secretion-induced leaves of N. attenuata WT (Data 2) were also produced in vitro (FIG. 16 and FIG. 47). These doubly charged CP dimers were only produced when the quantities of the (Z)-3-hexenal substrate were lower than those of the CP substrate in vitro. […]
(§4) In vitro assays of NaPPO1, NaPPO2, and NaBBL2: NaPPO1, NaPPO2, and NaBBL2 enzyme activity assays were performed by incubating 100 μg of the purified recombinant protein in 84 mM acetate buffer (pH 4.8) containing 20 mM (E)-N-caffeoylputrescine (BOC Sciences, catalogue #: B0005-053482) and 1 M cis-3-hexenal (Sigma, catalogue #: W256102-SAMPLE-K) or trans-2-hexenal (Sigma, catalogue #: W256005-1KG-K). During incubation of the enzyme reactions at 8° C., 1 μL of the reactions buffer was directly injected and analyzed by LC-MS every h to detect products. […]

NaPPO2 = NaPPO2 (Nicotiana attenuata, UniProt A0A1J6IKE9); assay: In vitro enzyme assay, substrate specificity of NaPPO2; assay type: biochemical
Chain of NaPPO2 (A0A1J6IKE9 entry or part of it): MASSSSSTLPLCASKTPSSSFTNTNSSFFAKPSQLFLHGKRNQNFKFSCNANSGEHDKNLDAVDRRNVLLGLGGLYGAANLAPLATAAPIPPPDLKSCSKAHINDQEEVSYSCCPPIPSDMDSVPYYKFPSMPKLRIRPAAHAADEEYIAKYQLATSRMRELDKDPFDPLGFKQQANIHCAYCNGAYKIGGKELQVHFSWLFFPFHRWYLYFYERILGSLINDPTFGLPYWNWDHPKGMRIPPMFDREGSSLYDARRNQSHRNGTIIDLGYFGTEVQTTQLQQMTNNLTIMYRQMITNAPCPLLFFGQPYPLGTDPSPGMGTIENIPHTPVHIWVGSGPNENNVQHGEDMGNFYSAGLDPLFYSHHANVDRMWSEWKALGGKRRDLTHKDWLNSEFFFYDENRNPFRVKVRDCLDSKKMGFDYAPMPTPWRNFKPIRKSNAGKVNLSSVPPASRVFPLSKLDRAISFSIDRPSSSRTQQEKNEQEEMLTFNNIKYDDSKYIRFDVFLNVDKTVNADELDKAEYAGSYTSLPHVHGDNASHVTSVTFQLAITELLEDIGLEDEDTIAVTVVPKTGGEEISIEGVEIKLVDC
Text: as §1, §2, §3, §4

Empoasca decipiens = assay: In vitro Empoasca non-choice (direct feeding) assay on artificial diet; assay type: in vivo; conditions: for changes in mortality rates of E. decipiens compared to glucose controls: physiologically relevant concentrations (CoP 7 μM, CP 100 μM, FP 10 μM) in 10% glucose solution
Protocol: FIG. 18 Mortality rates of in vitro Empoasca non-choice assays (n=4, 25 Empoasca leafhoppers per replicate) in which Empoasca were fed for 6 h with either 1 μM m/z 347.19 synthesized by using NaPPO1/NaPPO2 and CP and Z3H and diluted in 10% glucose solution or with 10% glucose as control (top). Empoasca in planta choice assays (n=8) conducted with VIGS plants of EV, PPO1, PPO2 and AT1 (bottom).
To test if CPH is responsible for Empoasca resistance, E. decipiens were fed with physiologically relevant concentrations of 1 μM (estimated from field-collected elicited leaves) of NMR-confirmed CPH in diets containing 10% glucose in vitro. […] NaAT1 expression was silenced in N. attenuata plants using VIGS, which disrupted the production of both CP and the CPH (Li et al., Proc Natl Acad Sci USA 112, E4147-4155 (2015)) (FIG. 13).
Empoasca feeding assays: The survival rate of Empoasca feeding on artificial diet (10% 5 sucrose in water) supplemented with caffeoylputrescine (CP, 100 μM), coumaroylputrescine (CoP, 7 μM), feruloylputrescine (FP, 10 μM), or the m/z 347.19 hexenyl derivative of CP (CPH, 1 μM) was recorded every 1 h overnight. The artificial feeding devices consisted of a 50-mL Falcon tube with a 7-mm hole drilled into the conical bottom through which the leafhoppers were aspi-rated into the tube and which then was covered with Parafilm punctured with needles to create ventilation holes. The large opening of the Falcon tube was covered with a double layer of Parafilm containing the liquid diet (100 μL). The artificial feeding devices were placed upside down with the liquid diet side down on a White Light Box (STRATAGENE) to provide bottom-light illu-mination.

Empoasca leafhoppers = assay: In vivo Empoasca choice assay, compounds infiltrated into irMYC2 leaves; design: species or system Empoasca decipiens; conditions: synthetic CoP 7 μM, CP 100 μM, FP 10 μM in 0.1% DMSO infiltrated into irMYC2 leaves
Protocol: The spermi-dine-derived metabolites could be excluded as mediators of Empoasca nonhost resistance based on the lack of responses of leafhoppers to the irDH29 and irCV86 lines (FIG. 5). To further explore the involvement of CoP, CP and FP, in vivo Empoasca choice assays were conducted by individually infiltrating physiologically relevant concentrations of synthetic CoP (7 μM), CP (100 μM) and FP (10 μM) into leaves of irMYC2 plants which were devoid of elicited phenolamides (FIG. 9 and FIG. 34).
Two replicates of the 650 RILs from a 26-parent MAGIC population and their 26 parental 5 lines were planted at the WCCER field station, Prescott, Arizona, USA. To elicit a standardized herbivory response, leaves of all RILs, which were in the early-flowering stage were wounded and immediately treated with diluted Manduca sexta oral secretions (W+OS) or left untreated (control) and harvested on dry ice at 1 h and 72h. One week after metabolite sampling, all plants of the field population were screened for natural Empoasca leafhopper numbers and damage; these leafhoppers had opportunistically sampled the N. attenuata plants from neighboring native cu-cumber hostplants. The mQTL and eQTL mapping between SNPs and the relative abundance of each compound or transcript using a set of 646 RILs of the MAGIC population was done with the R package software GAPIT using General linear models (GLM). The multi-omics co-association network was built from correlations among metabolomes, transcriptomes, phytohormones and SNPs. […] Metabolome diversity and specialization and metabolic specificity was calculated using information theory by consider-ing the Shannon entropy of the idMS/MS frequency distributions. […] OS-induced volatile emissions were collected using polydimethylsiloxane (PDMS) tubing from 650 MAGIC RILs planted in the main MPI-CE glasshouse and analyzed bythermal desorption-gas chromatography-mass spectrometry (TD-GC-MS). […]

[1] = Estimation of half-life of m/z 347.19 by NMR time acquisitions; assay type: physicochemical; conditions: acidified methanol-d3 (0.1% formic acid), room temperature, darkness
Text: FIG. 55 Estimation of half-life of m/z 347.19. Different time acquisitions of NMR spectra for purified m/z 347.19 are shown.
(§5) To elucidate the chemical structure of m/z 347.19, it was attempted to isolate and purify the m/z 347.19 using induced N. attenuata leaf material and enzyme assay-derived products. However, several attempts failed due to the instability of m/z 347.19. […] These observations indicate that m/z 347.19 is reactive and unstable at high pH. The purification procedures for m/z 347.19 were modified to produce large quantities from enzymatic assays under weak acidic conditions and purified m/z 347.19 using solid phase extraction under argon atmospheres. The purified m/z 347.19 was then subjected to NMR analysis, which elucidated its structural identity as a CP-5-(Z)-3-hexenal compound (hereafter named CPH) (FIG. 54). […] CPH contains both a reactive moiety of a, 3-unsaturated aldehyde derived from (Z)-3-hexenal, which is electrophilic, and an amine feature of the caffeoylputrescine, which is nucleophilic.

[2] = Stability of m/z 347.19 during sample extraction and purification; assay type: physicochemical
Text: as §5

## CCC/C=C/C=O [(E)-2-hexenal]
NaPPO1; NaPPO1 incubated with CP and (E)-2-hexenal
  enzyme activity (m/z 347.19 production): little-to-no activity
NaPPO2; NaPPO2 incubated with CP and (E)-2-hexenal
  enzyme activity (m/z 347.19 production): little-to-no activity

## O=C(/C=C/c1ccc(O)c(O)c1)O[C@@H]1C[C@](O)(C(=O)O)C[C@@H](O)[C@H]1O [CGA, chlorogenic acid]
NaPPO1; incubated with NaPPO1 and (Z)-3-hexenal
  acceptance as substrate (new products): not accepted as substrates
NaPPO2; incubated with NaPPO2 and (Z)-3-hexenal
  acceptance as substrate (new products): not accepted as substrates

## NCCCCNC(=O)/C=C/c1ccc(O)c(O)c1 [CP, N-caffeoylputrescine]
Empoasca decipiens
  changes in mortality rates of E. decipiens compared to glucose controls: no significant changes in mortality rates; also recorded: not affecting leafhopper behavior or performance
Empoasca leafhoppers
  preference of Empoasca for irMYC2 plants: did not alter the preference; also recorded: not affecting leafhopper behavior or performance

## CCC(/C=C/C=O)c1cc(O)c(O)cc1/C=C/C(=O)NCCCCN (centres unmarked) [CPH, CP-5-(Z)-3-hexenal]
Empoasca decipiens; Empoasca decipiens, feed or water, 1 μM in diet containing 10% glucose, after 6 h of feeding, vs control diet, read-out: mortality of E. decipiens
  mortality at 1 µM: ~100%
[1]
  half-life: ~22 h
[2]; Leaf sample collection using Eppendorf tubes without direct contact with liquid N2
  Stability: Yes
[2]; Leaf sample collection using aluminium foil in liquid N2
  Stability: No
[2]; Purifying using SPE column with argon flow
  Stability: Yes
[2]; Purifying using freeze drying
  Stability: No
[2]; Purifying using rotary evaporator
  Stability: No
[2]; Sample extraction buffer pH 4.8
  Stability: Yes
[2]; Sample extraction buffer pH 10
  Stability: No
[2]; ammonium-acetate buffer (pH 4.8)
  stability in buffer: relatively stable
[2]; concentrated by rotatory evaporation or freeze drying
  stability when concentrated: rapidly decomposed
[2]; high pH
  stability at high pH: unstable

## COc1cc(/C=C/C(=O)NCCCCN)ccc1O [FP, N-feruloylputrescine]
Empoasca decipiens
  changes in mortality rates of E. decipiens compared to glucose controls: no significant changes in mortality rates; also recorded: not affecting leafhopper behavior or performance
Empoasca leafhoppers
  preference of Empoasca for irMYC2 plants: did not alter the preference; also recorded: not affecting leafhopper behavior or performance
